# Reference: ChEMBL document CHEMBL5528001, “Synthetic product-based approach toward potential antileishmanial drug development” (Eur J Med Chem, 2024)
# What was measured:
# [1] = system: HepG2; experiment: Antiproliferative activity against human HepG2 cells assessed as reduction in cell viability incubated for 72 hrs by MTT assay; assay type: functional, cell-based; details: HepG2, 72 h
# [2] = system: HepG2; experiment: Cytotoxicity against human HepG2 cells assessed as reduction in cell growth incubated for 48 hrs by MTT assay; assay type: functional, cell-based; details: HepG2, 48 h
# [3] = system: Leishmania infantum; experiment: Antileishmanial activity against Leishmania infantum MCAN/ES/89/IPZ229/1/89 promastigotes assessed as reduction in parasite growth measured for 48 hrs by resazurin dye based analysis; assay type: functional, organism-based; details: MCAN/ES/89/IPZ229/1/89, 48 h
# [4] = system: Leishmania infantum; experiment: Antileishmanial activity against Leishmania infantum amastigotes infected in human THP-1 cells assessed as reduction in parasite growth incubated for 72 hrs by high content imaging analysis; assay type: functional, organism-based; details: THP-1, 72 h
# [5] = system: Leishmania infantum; experiment: Antileishmanial activity against Leishmania infantum MCAN/ES/ 89/IPZ229/1/89 axenic amastigotes assessed as reduction in parasite viability treated for 48 hrs by PI staining based flow cytometry; assay type: functional, organism-based; details: MCAN/ES/89/IPZ229/1/89, 48 h
# [6] = system: Leishmania infantum; experiment: Antiparasitic activity against Leishmania infantum amastigotes infected in human THP-1 cells assessed as reduction in parasitemia incubated for 72 hrs by high content imaging analysis; assay type: functional, organism-based; details: THP-1, 72 h
# [7] = system: Leishmania infantum; experiment: Antileishmanial activity against Leishmania infantum MHOM/MA/67/ITMAP263 axenic amastigotes assessed as reduction in parasite viability treated for 24 hrs by PI staining based flow cytometry; assay type: functional, organism-based; details: MHOM/MA/67/ITMAP263, 24 h
# [8] = system: Leishmania amazonensis; experiment: Antileishmanial activity against Leishmania amazonensis intracellular amastigotes assessed as parasite growth inhibition measured for 72 hrs by resazurin/alamar blue fluorometric assay; assay type: functional, organism-based
# [9] = Selectivity index, ratio of CC50 for cytotoxicity against mouse BMDM cells to IC50 for antileishmanial activity against Leishmania amazonensis intracellular amastigotes; assay type: toxicity, cell-based; details: read-out: Ratio CC50/IC50
# [10] = system: Leishmania amazonensis; experiment: Antileishmanial activity against Leishmania amazonensis WHOM/00LTB001 promastigotes assessed as reduction in parasite growth incubated for 72 hrs by resazurin staining based analysis; assay type: functional, organism-based; details: WHOM/00LTB001, 72 h
# [11] = Cytotoxicity against mouse J774.A1 cells assessed as inhibition of cell growth measured for 72 hrs by MTT assay; assay type: toxicity, cell-based
# [12] = Cytotoxicity against primary peritoneal mouse macrophages cells assessed as reduction in cell growth measured after 24 hrs by colorimetric assay; assay type: toxicity, cell-based, Macrophage
# [13] = system: Leishmania major; experiment: Antileishmanial activity against Leishmania major IR-173 promastigotes assessed as inhibition of parasite growth measured for 48 hrs by resazurin staining based analysis; assay type: functional, organism-based; details: IR-173, 48 h
# [14] = system: Leishmania major; experiment: Antileishmanial activity against Leishmania major MHOM/IR/-173 promastigotes assessed as inhibition of parasite growth measured for 24 hrs by resazurin dye-based analysis relative to control; assay type: functional; set-up: scale not given: the % may be the effect or the level left
# [15] = system: Leishmania donovani; experiment: Antileishmanial activity against Leishmania donovani MHOM/SD/62/1S amastigotes assessed as reduction in cell growth; assay type: functional, organism-based
# [16] = system: Leishmania major; experiment: Antileishmanial activity against Leishmania major MHOM/IN/95/9515 amastigotes assessed as reduction in cell growth; assay type: functional, organism-based
# [17] = system: Leishmania amazonensis; experiment: Antileishmanial activity against Leishmania amazonensis promastigotes assessed as reduction in parasite viability incubated for 48 hrs by MTT assay; assay type: functional, organism-based
# [18] = system: Leishmania donovani; experiment: Antileishmanial activity against Leishmania donovani 9515 promastigotes assessed as inhibition of parasite growth incubated for 48 hrs by resazurin dye based assay; assay type: functional, organism-based; details: Leishmania donovani, 9515, 48 h
# [19] = system: Leishmania donovani; experiment: Antileishmanial activity against Leishmania donovani promastigotes MHOM/SD/62/1S assessed as inhibition of cell growth measured after 48 hrs by resazurin dye based assay; assay type: functional, organism-based
# [20] = system: Leishmania donovani; experiment: Antileishmanial activity against Leishmania donovani amastigotes MHOM/SD/62/1S assessed as inhibition of cell growth measured after 48 hrs by resazurin dye based assay; assay type: functional, organism-based
# [21] = system: Leishmania donovani; experiment: Antileishmanial activity against Leishmania donovani 9515 amastigotes assessed as inhibition of parasite growth incubated for 48 hrs by resazurin dye based assay; assay type: functional, organism-based; details: Leishmania donovani, 9515, 48 h
# [22] = Cytotoxicity against African green monkey Vero cells assessed as reduction in cell viability incubated for 72 hrs by MTT assay; assay type: toxicity, cell-based, Chlorocebus sabaeus
# [23] = Cytotoxicity against human THP-1 cells assessed as inhibition of cell growth measured after 72 hrs by MTT assay; assay type: toxicity, cell-based
# [24] = system: Leishmania donovani; experiment: Antileishmanial activity against Leishmania donovani promastigotes assessed as inhibition of parasite growth; assay type: functional, organism-based
# [25] = system: Leishmania donovani; experiment: Antileishmanial activity against Leishmania donovani amastigotes assessed as inhibition of parasite growth; assay type: functional, organism-based
# [26] = system: Leishmania infantum; experiment: Antileishmanial activity against Leishmania infantum promastigote after 72 hrs by MTT assay; assay type: functional, organism-based
# [27] = Cytotoxicity against mouse RAW264.7 cells assessed as reduction in cell viability measured after 48 hrs by MTT assay; assay type: toxicity, cell-based
# [28] = system: Leishmania donovani; experiment: Antileishmanial activity against Leishmania donovani MHOM/ET/67/HU3 promastigotes assessed as inhibition of parasite growth incubated for 72 hrs by MTT assay; assay type: functional, organism-based; details: MHOM/ET/67/HU3, 72 h
# [29] = Selectivity index, ratio of CC50 for cytotoxicity against mouse J774.A1 cells to IC50 for antileishmanial activity against Leishmania amazonensis axenic amastigote assessed as inhibition of parasite growth; assay type: toxicity, cell-based; details: read-out: Ratio CC50/IC50
# [30] = system: Leishmania donovani; experiment: Antileishmanial activity against Leishmania donovani axenic amastigotes assessed as reduction in parasite growth measured after 24 hrs by PI staining based analysis; assay type: functional, organism-based
# [31] = system: Leishmania infantum; experiment: Antileishmanial activity against Leishmania infantum MON-1 promastigotes assessed as reduction in parasite viability measured after 48 hrs by MTT assay; assay type: functional, organism-based; details: MON-1, 48 h
# [32] = system: HepG2; experiment: Antiproliferative activity against human HepG2 cells assessed as reduction in cell growth measured for 72 hrs by MTT assay; assay type: functional, cell-based; details: HepG2, 72 h
# [33] = system: HepG2; experiment: Cytotoxicity against human HepG2 cells assessed as reduction in cell growth measured for 48 hrs by MTT assay; assay type: functional
# [34] = system: Leishmania donovani; experiment: Antileishmanial activity against Leishmania donovani S1 promastigotes assessed as parasite growth inhibition incubated for 72 hrs by Alamar blue assay; assay type: functional, organism-based; details: S1, 72 h
compound,measurement,setting,value
Nc1nc2ccccc2c2ccccc12,EC50,[1],< 30 µM
same,EC50,[2],3.07 µM
same,EC50,[3],12.6 µM
C/C(=N\Nc1nc(-c2ccc(Br)cc2)cs1)c1ccccn1,IC50,[4],430 nM
CC1(C)Oc2c(c(=O)[nH]c3ccccc23)[C@H]2[C@@H](Cl)[C@](C)(O)CC[C@@H]21,IC50,[5],8.1 µM
Cn1c(=O)c2c(c3ccccc31)OC(C)(C)[C@H]1CC[C@@](C)(O)[C@H](Cl)[C@H]21,IC50,[6],> 6.25 µM
CCCCCCCCNCc1ccc2c(c1)C(=O)CC(C)(C)O2,IC50,[7],25.3 µM
same,IC50,[8],24.6 µM
same,selectivity ratio,[9],1.6
CCc1ccc(NC(=S)N/N=C/c2c[nH]c3c(C)cc(Br)cc23)cc1,IC50,[10],12.3 µM
same,CC50 at 72 h,[11],53.2 µM
CCCCCCCCCCn1cc(CNCCNc2ccnc3cc(Cl)ccc23)nn1,CC50 at 24 h,[12],18.2 µM
same,IC50,[13],80 nM
O=C(Cn1cnc2ccccc2c1=O)N1CCC2(CC1)OCCO2,Activity,[14],35%
Cc1ccc2c(NCCCN(C)C(=O)c3cccc(/C=C/C(=O)c4ccc(C)o4)c3)ccnc2c1,IC50,[15],1080 nM
same,IC50,[16],1140 nM
O=C(CCc1ccc(O)c(O)c1)O[C@H](Cc1ccc(O)cc1)C(=O)O,IC50,[17],19 µM
O=[N+]([O-])c1ccc(/C=N\NS(=O)(=O)c2ccc(-c3ccccc3)cc2)o1,IC50,[18],1530 nM
same,IC50,[19],1450 nM
same,IC50,[20],2940 nM
same,IC50,[21],6.29 µM
same,IC50 at 72 h,[22],16.4 µM
same,IC50 at 72 h,[23],50.4 µM
Cc1cc(O)c(C(=O)Nc2ccccc2)c(=O)n1Cc1ccc(F)cc1,IC50,[24],55 µM
same,IC50,[25],55.8 µM
O=C(/C=C/c1ccc(F)cc1)c1ccccc1Cl,IC50,[26],74.1 µM
same,CC50 at 48 h,[27],479 µM
CC(=O)Oc1ccc(CN2CNC(=O)C=N2)cc1C1OC(c2cccc(Cl)c2)=NN1C(C)=O (centres undefined),IC50,[28],8.98 µM
same,selectivity ratio,[29],2.4
same,IC50,[30],6.05 µM
CCOC(=O)c1cc2c([nH]c3ccccc32)c(-c2cn(-c3ccccc3)nn2)n1,EC50,[31],4.8 µM
same,EC50,[32],13.6 µM
same,CC50,[33],> 200 µM
COc1cccc2c1O/C(=C(/C)c1ncc([N+](=O)[O-])[nH]1)C2=O,IC50,[34],16 nM
